# Data from patent US20220016035A1, “Extended Release Highly Loaded Drug Compositions” (Lubrizol Advanced Materials, Inc., priority 2017, published 2022).
# What was measured:
# [1] = Forced degradation testing of Levetiracetam tablets and powder blends, 12 days, impurities by HPLC; assay type: physicochemical; settings: Levetiracetam examples, forced degradation conditions
# Procedure: 1.4 g of anhydrous di basic sodium phosphate in 1 liter of water. Adjusted to pH 3.5 with Orth phosphoric acid. Filter buffer with 0.45 um Nylon membrane filter paper. A mixture of 95 volumes of buffer solution and 5 volumes of Acetonitrile. To each 1 Liter of the mixture, add 1 g of sodium 1-hexanesulfonate monohydrate. […] Cool and make up to the volume with water. (Standard Stock Solution 2500 ppm). Next, Dilute 5 mL of standard solution a to 50 mL with water (Standard Solution (a) 250 ppm), further Dilute 5 mL of standard solution (a) to 100 mL with water (Standard Solution 12.5 ppm). […] Cool to room temperature and add 25 mL of acetonitrile to volumetric flask and make up the volume with water and centrifuge for 15 min @ 3500 RPM. filter the solution with 0.45 μm PVDF Millipore membrane syringe filter by discarding first 5 mL of filtrate. Dilute 5 mL of filtrate to 10 mL with water (2500 ppm). This group of examples is subjected to forced degradation testing conditions, where each example is formed into a tablet and then stored at 60 to 80 degrees C. and 75% relative humidity for a period of 5 or 12 days. At the end of the 5 days or 12 days each tablet is tested for its pH level and percent impurities. […]
# [2] = Forced degradation testing of Levetiracetam blends (Table 8), Levetiracetam acid and total impurities by HPLC; assay type: physicochemical; settings: blend, 12 Day exposure, 60 C./75% RH
Compound,WT % IMPURITY [1] [WT %],Levetiracetam Acid [2]
"CC[C@@H](C(N)=O)N1CCCC1=O [EX 31, Levetiracetam]",0.02,
"CC[C@@H](C(N)=O)N1CCCC1=O [EX 34, Levetiracetam]",,0.01
